What was measured:
[1] = target: Kelch domain of human KEAP1 (321-624 aa) (Homo sapiens (Human), UniProt Q14145); assay: KEAP1 KELCH ThermoFluor binding assay; settings: KEAP Kelch […], 1,8-ANS, pH 7.0, average of results obtained, read-out: Tf Kd;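 further: Ligand-induced melting temperature shift of E. coli-expressed KEAP1 Kelch protein, Kd estimated from concentration-response curves of ΔTm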
[2] = system: Glo-Response ARE-luc2P HEK293 cell line; assay: ARE luciferase reporter cell-based assay; settings: Homo sapiens, HEK293, 24 h, average of results obtained;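 further: luciferase signal tracks Nrf2 activation of the ARE once compounds disrupt KEAP1-Nrf2 binding, read with One-Glo reagent, DMSO serving as low control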

Kelch domain of human KEAP1 (321-624 aa), sequence (Q14145 321-624): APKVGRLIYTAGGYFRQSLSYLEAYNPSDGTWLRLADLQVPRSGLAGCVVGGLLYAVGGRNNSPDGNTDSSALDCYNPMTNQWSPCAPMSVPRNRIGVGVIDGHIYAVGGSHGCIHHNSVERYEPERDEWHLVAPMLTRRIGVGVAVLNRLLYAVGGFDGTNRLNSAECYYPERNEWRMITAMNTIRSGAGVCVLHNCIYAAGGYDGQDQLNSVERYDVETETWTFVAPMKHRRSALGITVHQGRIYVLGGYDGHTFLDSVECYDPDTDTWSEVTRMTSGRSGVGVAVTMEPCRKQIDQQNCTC

Row | SMILES | Kd [1] [nM] | EC50 [2] [nM]
1 | Cc1ccc([C@@H](c2cc(C)n3c(C(F)(F)F)nnc3c2C)C(C)C(=O)O)cc1CN1C[C@@H]2CCCCN2c2ncccc2S1(=O)=O (relative stereo) [Example 134, (3*S)-3-(5,8-Dimethyl-3)-(trifluoromethyl)-[1,2,4-triazolo[4,3-a]pyridine-7-yl)-3-(3-(((*S)-5,5-dioxido-7,7a,8,9,10,11-hexahydro-6H-dipyrido[2,1-d:2′,3′-][1,2,5]thiadiazepin-6-yl)methyl)-4-methylphenyl)-2-methylpropanoic Acid] | < 1 | 61.3
2 | Cc1ccc([C@@H](CC(=O)O)c2ccn3c(C)nnc3c2)cc1CN1C[C@H]2CCCN2c2ccccc2S1(=O)=O (single isomer, unassigned) [Example 166, (*R)-3-(3-(((R)-5,5-Dioxido-7a,8,9,10-tetrahydrobenzo[f]pyrrolo[2,1-d][1,2,5]thiadiazepin-6(7H)-yl)methyl)-4-methylphenyl)-3-(3-methyl-[1,2,4]triazolo[4,3-a]pyridin-7-yl)propanoic Acid] | < 1 | 7020
3 | Cc1ccc([C@H](c2ccn3c(C4CC4)nnc3c2C)C(C)(C)C(=O)O)cc1CN1CC2(COC2)Oc2ncccc2S1(=O)=O (single isomer, unassigned) [Example 620, (*R)-3-(3-Cyclopropyl-8-methyl-[1,2,4]triazolo[4,3-a]pyridin-7-yl)-3-(3-((1′,1′-dioxidospiro[oxetane-3,4′-pyrido[2,3-b][1,4,5]oxathiazepin]-2′(3′H)-yl)methyl)-4-methylphenyl)-2,2-dimethylpropanoic Acid] | < 1 | 7.87
4 | Cc1ccc([C@H](c2ccn3c(C(F)(F)F)nnc3c2C)C(C)(C)C(=O)O)cc1CN1C[C@]2(CCOC2)Oc2ncccc2S1(=O)=O (single isomer, unassigned) [Example 385, (*R)-3-(3-(((*S)-1′,1′-Dioxido-4,5-dihydro-2H-spiro[furan-3,4′-pyrido[2,3-b][1,4,5]oxathiazepin]-2′(3′H)-yl)methyl)-4-methylphenyl)-2,2-dimethyl-3-(8-methyl-3-(trifluoromethyl)-[1,2,4]triazolo[4,3-a]pyridin-7-yl)propanoic Acid] | < 1 | 1.8
5 | Cc1ccc([C@@H](CC(=O)O)c2ccn3c(C(F)F)nnc3c2C)cc1CN1C[C@@H]2CCCCN2c2ncc(C#N)cc2S1(=O)=O (single isomer, unassigned) [Example 29, (*R)-3-(3-(((*S)-3-Cyano-5,5-dioxido-7,7a,8,9,10,11-hexahydro-6H-dipyrido[2,1-d:2′,3′-f][1,2,5]thiadiazepin-6-yl)methyl)-4-methylphenyl)-3-(3-(difluoromethyl)-8-methyl-[1,2,4]triazolo[4,3-a]pyridin-7-yl)propanoic Acid] | < 1 | 50.9
6 | Cc1cnc2c(c1)S(=O)(=O)N(Cc1cc([C@@H](CC(=O)O)c3ccn4c(C(F)F)nnc4c3C)ccc1C)CC1(CC1)O2 (single isomer, unassigned) [Example 537, (*R)-3-(3-(Difluoromethyl)-8-methyl-[1,2,4]triazolo[4,3-a]pyridin-7-yl)-3-(4-methyl-3-((8′-methyl-1′,1′-dioxidospiro[cyclopropane-1,4′-pyrido[2,3-b][1,4,5]oxathiazepin]-2′(3′H)-yl)methyl)phenyl)propanoic Acid] | < 1 | 464
7 | CCn1nnc2c(C)c([C@H](CC(=O)O)c3ccc(C)c(CN4CC5(COC5)Oc5ncccc5S4(=O)=O)n3)ccc21 (single isomer, unassigned) [Example 241, (*S)-3-(6-((1′,1′-Dioxidospiro[oxetane-3,4′-pyrido[2,3-b][1,4,5]oxathiazepin]-2′(3′H)-yl)methyl)-5-methylpyridin-2-yl)-3-(1-ethyl-4-methyl-1H-benzo[d][1,2,3]triazol-5-yl)propanoic Acid] | < 1 | 28
8 | Cc1ccc(C(CC(=O)O)c2cc(OC3CC3)c3c(c2)nnn3C)cc1CN1C[C@H]2CCCN2c2ncccc2S1(=O)=O (stereo partly drawn) [Example 4, 3-(7-Cyclopropoxy-1-methyl-1H-benzo[d][1,2,3]triazol-5-yl)-3-(3-(((R)-5,5-dioxido-7a,8,9,10-tetrahydropyrido[2,3-f]pyrrolo[2,1-d][1,2,5]thiadiazepin-6(7H)-yl)methyl)-4-methylphenyl)propanoic acid] | 0.24 | 79
9 | Cc1ccc([C@@H](CC(=O)O)c2ccn3c(C(F)(F)F)nnc3c2C)cc1CN1C[C@@H]2CN(C)CCN2c2ncccc2S1(=O)=O (single isomer, unassigned) [Example 179, (*R)-3-(4-Methyl-3-(((*S)-9-methyl-5,5-dioxido-7,7a,8,9,10,11-hexahydro-6H-pyrazino[2,1-d]pyrido[2,3-f][1,2,5]thiadiazepin-6-yl)methyl)phenyl)-3-(8-methyl-3-(trifluoromethyl)-[1,2,4]triazolo[4,3-a]pyridin-7-yl)propanoic Acid] | 58 | 2040
10 | Cc1ccc([C@H](CC(=O)O)c2ccc3c(nnn3C3CC3)c2C)cc1CN1C[C@H]2CCCCN2c2ncccc2S1(=O)=O (single isomer, unassigned) [Example 212, (*S)-3-(1-Cyclopropyl-4-methyl-1H-benzo[d][1,2,3]triazol-5-yl)-3-(3-(((*R)-5,5-dioxido-7,7a,8,9,10,11-hexahydro-6H-dipyrido[2,1-d:2′,3′-f][1,2,5]thiadiazepin-6-yl)methyl)-4-methylphenyl)propanoic Acid] | < 1 | 3.7
11 | Cc1ccc([C@H](c2ccn3c(C(F)(F)F)nnc3c2C)C(C)(C)C(=O)O)cc1CN1CC2(CCOCC2)Oc2ncccc2S1(=O)=O (single isomer, unassigned) [Example 410, (*R)-3-(3-((1′,1′-dioxido-2,3,5,6-tetrahydrospiro[pyran-4,4′-pyrido[2,3-b][1,4,5]oxathiazepin]-2′(3′H)-yl)methyl)-4-methylphenyl)-2,2-dimethyl-3-(8-methyl-3-(trifluoromethyl)-[1,2,4]triazolo[4,3-a]pyridin-7-yl)propanoic Acid] | 2400 | 1220
12 | Cc1ccc([C@H](CC(=O)O)c2ccn3c(C(F)(F)F)nnc3c2C)cc1CN1CC2(CC2)Oc2nc(NCCN3CCCCC3)ccc2S1(=O)=O (single isomer, unassigned) [Example 112, (*S)-3-(3-((1′,1′-Dioxido-7′-((2-(piperidin-1-yl)ethyl)amino)spiro[cyclopropane-1,4′-pyrido[2,3-b][1,4,5]oxathiazepin]-2′(3′H)-yl)methyl)-4-methylphenyl)-3-(8-methyl-3-(trifluoromethyl)-[1,2,4[triazolo[4,3-a]pyridine-7-yl)propanoic Acid] | < 1 | 1310
13 | Cc1cnc2c(c1)S(=O)(=O)N(Cc1cc([C@@H](c3ccn4c(C(F)(F)F)nnc4c3)C(C)(C)C(=O)O)ccc1C)CC1(CC1)O2 (single isomer, unassigned) [Example 323, (*S)-2,2-Dimethyl-3-(4-methyl-3-((8′-methyl-1′,1′-dioxidospiro[cyclopropane-1,4′-pyrido[2,3-b][1,4,5]oxathiazepin]-2′(3′H)-yl)methyl)phenyl)-3-(3-(trifluoromethyl)-[1,2,4]triazolo[4,3-a]pyridin-7-yl)propanoic Acid] | 298 | 16200
